According to the kinase profiling compilation of Christmann-Franck et al. (2016):
Values joined by “and” are separate entries in the source; they are usually repeats but may differ in a detail not shown here. Identical values can stand only once.

How the values were obtained:
Test in all cases: radiometric filter-binding kinase assay, Kinase HotSpot
Settings in all cases: compound 0.5 µM; ATP 10 µM
FYN (human) = FYN (human) (UniProt P06241)
PRKCB1 (human) = PRKCB1 (human) (UniProt P05771)
TNK2 (human) = TNK2 (human) (UniProt Q07912)
PIM3 (human) = PIM3 (human) (UniProt Q86V86)
CAMK4 (human) = CAMK4 (human) (UniProt Q16566)
Sequence of CAMK4 (human) (Q16566 whole entry, looked up): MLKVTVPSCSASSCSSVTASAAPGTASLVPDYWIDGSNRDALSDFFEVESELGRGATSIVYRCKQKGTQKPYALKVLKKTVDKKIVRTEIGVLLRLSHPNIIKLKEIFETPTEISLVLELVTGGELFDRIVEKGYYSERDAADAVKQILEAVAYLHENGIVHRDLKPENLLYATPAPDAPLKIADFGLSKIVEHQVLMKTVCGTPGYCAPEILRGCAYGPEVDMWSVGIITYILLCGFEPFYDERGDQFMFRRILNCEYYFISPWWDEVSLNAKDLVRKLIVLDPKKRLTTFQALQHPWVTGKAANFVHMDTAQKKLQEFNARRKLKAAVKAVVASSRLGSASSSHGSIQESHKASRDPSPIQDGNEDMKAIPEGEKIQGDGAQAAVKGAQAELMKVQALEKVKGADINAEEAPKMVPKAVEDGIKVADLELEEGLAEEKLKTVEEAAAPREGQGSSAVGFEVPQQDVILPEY

LYN (human) = LYN (human) (UniProt P07948)
CAMKK1 (human) = CAMKK1 (human) (UniProt Q8N5S9)
IKBKB (human) = IKBKB (human) (UniProt O14920)
Sequence of IKBKB (human) (O14920 whole entry, looked up): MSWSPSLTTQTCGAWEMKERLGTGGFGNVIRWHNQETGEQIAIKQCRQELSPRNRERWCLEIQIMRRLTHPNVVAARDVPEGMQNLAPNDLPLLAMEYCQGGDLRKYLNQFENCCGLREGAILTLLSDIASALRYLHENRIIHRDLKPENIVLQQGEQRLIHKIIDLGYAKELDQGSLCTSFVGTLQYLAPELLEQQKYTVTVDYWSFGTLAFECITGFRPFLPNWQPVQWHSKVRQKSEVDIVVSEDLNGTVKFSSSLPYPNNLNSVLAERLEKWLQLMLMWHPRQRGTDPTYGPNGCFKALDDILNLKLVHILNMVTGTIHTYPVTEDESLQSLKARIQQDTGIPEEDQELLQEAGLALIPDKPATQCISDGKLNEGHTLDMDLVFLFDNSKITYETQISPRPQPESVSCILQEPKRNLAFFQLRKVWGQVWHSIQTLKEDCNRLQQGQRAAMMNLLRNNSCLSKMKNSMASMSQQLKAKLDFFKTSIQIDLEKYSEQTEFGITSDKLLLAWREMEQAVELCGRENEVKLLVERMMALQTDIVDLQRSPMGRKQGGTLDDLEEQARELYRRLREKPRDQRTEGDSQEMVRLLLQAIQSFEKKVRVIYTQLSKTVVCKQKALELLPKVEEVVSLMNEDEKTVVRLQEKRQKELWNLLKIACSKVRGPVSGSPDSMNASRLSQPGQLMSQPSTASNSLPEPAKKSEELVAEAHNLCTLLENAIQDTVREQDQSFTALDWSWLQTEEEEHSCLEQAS

TTK (human) = TTK (human) (UniProt P33981)
HIPK2 (human) = HIPK2 (human) (UniProt Q9H2X6)
PDGFRB (human) = PDGFRB (human) (UniProt P09619)
AKT2 (human) = AKT2 (human) (UniProt P31751)
MARK4 (human) = MARK4 (human) (UniProt Q96L34)
OXSR1 (human) = OXSR1 (human) (UniProt O95747)
DYRK4 (human) = DYRK4 (human) (UniProt Q9NR20)
NEK11 (human) = NEK11 (human) (UniProt Q8NG66)
HIPK1 (human) = HIPK1 (human) (UniProt Q86Z02)
PKN2 (human) = PKN2 (human) (UniProt Q16513)
EPHB1 (human) = EPHB1 (human) (UniProt P54762)
NUAK2 (human) = NUAK2 (human) (UniProt Q9H093)
NEK3 (human) = NEK3 (human) (UniProt P51956)
ADRBK1 (human) = ADRBK1 (human) (UniProt P25098)
Sequence of ADRBK1 (human) (P25098 whole entry, looked up): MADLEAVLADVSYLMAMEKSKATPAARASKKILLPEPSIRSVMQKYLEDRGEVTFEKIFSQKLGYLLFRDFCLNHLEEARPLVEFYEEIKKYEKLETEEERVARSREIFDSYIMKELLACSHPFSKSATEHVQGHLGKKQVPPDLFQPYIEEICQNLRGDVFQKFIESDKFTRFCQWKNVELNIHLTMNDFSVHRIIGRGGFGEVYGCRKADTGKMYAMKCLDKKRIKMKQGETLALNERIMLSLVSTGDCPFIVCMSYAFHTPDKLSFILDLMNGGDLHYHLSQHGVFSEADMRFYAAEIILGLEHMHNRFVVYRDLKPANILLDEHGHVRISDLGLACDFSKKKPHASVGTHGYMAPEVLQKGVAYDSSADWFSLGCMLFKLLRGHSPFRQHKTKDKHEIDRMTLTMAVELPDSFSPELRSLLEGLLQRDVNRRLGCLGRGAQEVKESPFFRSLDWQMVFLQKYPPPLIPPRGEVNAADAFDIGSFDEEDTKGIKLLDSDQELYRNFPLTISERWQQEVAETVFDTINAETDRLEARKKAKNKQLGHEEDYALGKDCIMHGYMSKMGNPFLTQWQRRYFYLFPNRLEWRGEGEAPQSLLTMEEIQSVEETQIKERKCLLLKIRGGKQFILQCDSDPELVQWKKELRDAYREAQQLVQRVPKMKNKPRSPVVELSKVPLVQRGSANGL

EPHA5 (human) = EPHA5 (human) (UniProt P54756)
CAMK1D (human) = CAMK1D (human) (UniProt Q8IU85)
CSF1R (human) = CSF1R (human) (UniProt P07333)
CDK4 CCND3 (human) = CDK4 CCND3 (human) (UniProt P30281+P11802)
FRK (human) = FRK (human) (UniProt P42685)
MYLK (human) = MYLK (human) (UniProt Q15746)
Sequence of MYLK (human) (Q15746 whole entry, looked up): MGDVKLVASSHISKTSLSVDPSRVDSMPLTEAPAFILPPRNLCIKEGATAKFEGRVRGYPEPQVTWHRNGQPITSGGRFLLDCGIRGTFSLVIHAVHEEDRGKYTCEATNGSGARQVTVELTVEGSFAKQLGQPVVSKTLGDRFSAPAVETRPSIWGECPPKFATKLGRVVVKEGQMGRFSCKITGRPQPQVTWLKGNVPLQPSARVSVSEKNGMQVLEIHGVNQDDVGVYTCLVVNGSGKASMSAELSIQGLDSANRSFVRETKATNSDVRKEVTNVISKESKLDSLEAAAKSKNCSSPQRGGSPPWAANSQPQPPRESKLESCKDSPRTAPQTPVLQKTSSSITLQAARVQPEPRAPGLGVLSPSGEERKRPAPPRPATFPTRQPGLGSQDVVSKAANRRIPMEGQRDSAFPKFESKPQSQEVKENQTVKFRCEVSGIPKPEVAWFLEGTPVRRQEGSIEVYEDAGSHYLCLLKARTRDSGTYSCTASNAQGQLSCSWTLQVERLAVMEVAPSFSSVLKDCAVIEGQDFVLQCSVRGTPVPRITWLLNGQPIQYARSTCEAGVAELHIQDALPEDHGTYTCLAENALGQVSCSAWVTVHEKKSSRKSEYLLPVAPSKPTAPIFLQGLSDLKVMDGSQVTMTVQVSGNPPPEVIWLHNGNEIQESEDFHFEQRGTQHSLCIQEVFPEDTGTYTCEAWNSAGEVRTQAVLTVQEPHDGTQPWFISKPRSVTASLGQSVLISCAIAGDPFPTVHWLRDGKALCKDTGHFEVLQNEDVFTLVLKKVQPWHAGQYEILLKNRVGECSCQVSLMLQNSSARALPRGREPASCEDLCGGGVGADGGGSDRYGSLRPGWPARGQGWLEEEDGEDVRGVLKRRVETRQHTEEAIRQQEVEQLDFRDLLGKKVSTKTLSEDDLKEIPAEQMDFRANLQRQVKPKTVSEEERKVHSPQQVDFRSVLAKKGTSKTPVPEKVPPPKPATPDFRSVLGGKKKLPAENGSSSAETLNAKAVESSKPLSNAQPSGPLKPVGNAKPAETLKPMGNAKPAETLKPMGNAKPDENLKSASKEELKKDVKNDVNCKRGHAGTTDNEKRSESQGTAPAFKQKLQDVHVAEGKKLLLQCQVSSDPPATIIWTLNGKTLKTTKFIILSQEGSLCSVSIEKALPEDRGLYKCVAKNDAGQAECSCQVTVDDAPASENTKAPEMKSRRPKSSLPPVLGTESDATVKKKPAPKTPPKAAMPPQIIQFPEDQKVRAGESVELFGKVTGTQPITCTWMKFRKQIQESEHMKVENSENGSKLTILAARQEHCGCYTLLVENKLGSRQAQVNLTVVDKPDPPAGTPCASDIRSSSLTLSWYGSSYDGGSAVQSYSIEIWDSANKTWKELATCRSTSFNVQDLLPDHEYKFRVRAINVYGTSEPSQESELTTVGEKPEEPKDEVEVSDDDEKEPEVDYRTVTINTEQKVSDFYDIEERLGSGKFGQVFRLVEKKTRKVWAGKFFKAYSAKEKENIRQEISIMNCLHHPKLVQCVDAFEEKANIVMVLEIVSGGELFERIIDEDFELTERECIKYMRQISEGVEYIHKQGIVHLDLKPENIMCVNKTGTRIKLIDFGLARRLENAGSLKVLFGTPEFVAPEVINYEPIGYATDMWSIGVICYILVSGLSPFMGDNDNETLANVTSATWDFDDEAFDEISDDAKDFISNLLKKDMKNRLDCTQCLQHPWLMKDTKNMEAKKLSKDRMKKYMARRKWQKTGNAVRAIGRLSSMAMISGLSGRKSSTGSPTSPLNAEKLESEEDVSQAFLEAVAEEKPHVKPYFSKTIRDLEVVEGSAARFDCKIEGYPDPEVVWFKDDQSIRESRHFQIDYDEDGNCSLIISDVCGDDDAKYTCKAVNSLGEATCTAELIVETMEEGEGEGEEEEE

GRK5 (human) = GRK5 (human) (UniProt P34947)
MAPK13 (human) = MAPK13 (human) (UniProt O15264)
RPS6KB1 (human) = RPS6KB1 (human) (UniProt P23443)
Sequence of RPS6KB1 (human) (P23443 whole entry, looked up): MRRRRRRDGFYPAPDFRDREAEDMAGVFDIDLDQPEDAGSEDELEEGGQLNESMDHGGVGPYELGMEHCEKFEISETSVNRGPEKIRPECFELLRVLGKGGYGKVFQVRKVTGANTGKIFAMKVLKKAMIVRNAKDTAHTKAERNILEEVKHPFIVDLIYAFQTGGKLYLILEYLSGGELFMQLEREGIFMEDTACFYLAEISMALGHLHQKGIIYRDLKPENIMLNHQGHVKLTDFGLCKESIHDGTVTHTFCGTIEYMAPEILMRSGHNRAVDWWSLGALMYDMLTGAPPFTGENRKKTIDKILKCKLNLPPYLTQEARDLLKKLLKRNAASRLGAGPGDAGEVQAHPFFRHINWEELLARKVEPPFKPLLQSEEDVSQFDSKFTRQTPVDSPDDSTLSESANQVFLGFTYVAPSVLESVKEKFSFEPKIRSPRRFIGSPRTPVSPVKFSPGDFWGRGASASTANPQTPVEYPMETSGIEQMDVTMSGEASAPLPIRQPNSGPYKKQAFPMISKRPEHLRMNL

TEC (human) = TEC (human) (UniProt P42680)
STK16 (human) = STK16 (human) (UniProt O75716)
Sequence of STK16 (human) (O75716 whole entry, looked up): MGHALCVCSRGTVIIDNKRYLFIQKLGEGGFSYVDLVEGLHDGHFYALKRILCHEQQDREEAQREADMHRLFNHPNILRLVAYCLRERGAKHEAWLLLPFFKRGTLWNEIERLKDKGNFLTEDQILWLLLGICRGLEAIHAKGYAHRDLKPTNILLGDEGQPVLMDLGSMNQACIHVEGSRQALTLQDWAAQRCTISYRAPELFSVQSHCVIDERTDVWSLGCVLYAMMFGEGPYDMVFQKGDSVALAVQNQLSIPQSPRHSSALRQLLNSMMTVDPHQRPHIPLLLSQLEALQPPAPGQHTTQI

MATK (human) = MATK (human) (UniProt P42679)
EPHA3 (human) = EPHA3 (human) (UniProt P29320)
HCK (human) = HCK (human) (UniProt P08631)
SLK (human) = SLK (human) (UniProt Q9H2G2)
TGFBR2 (human) = TGFBR2 (human) (UniProt P37173)
MELK (human) = MELK (human) (UniProt Q14680)
TBK1 (human) = TBK1 (human) (UniProt Q9UHD2)
AURKA (human) = AURKA (human) (UniProt O14965)
PTK2 (human) = PTK2 (human) (UniProt Q05397)

N/C(=N\N=C/c1ccc(-c2cccc([N+](=O)[O-])c2)o1)N[N+](=O)[O-]
residual activity (FYN (human)): 101% | residual activity (PRKCB1 (human)): 88.9% | residual activity (TNK2 (human)): 99.9% | residual activity (PIM3 (human)): 114% | residual activity (CAMK4 (human)): 95.2% | residual activity (LYN (human)): 96.3% and 99.4% | residual activity (CAMKK1 (human)): 106% | residual activity (IKBKB (human)): 86% | residual activity (TTK (human)): 95.9% | residual activity (HIPK2 (human)): 103% | residual activity (PDGFRB (human)): 129% | residual activity (AKT2 (human)): 99.7% | residual activity (MARK4 (human)): 87.6% | residual activity (OXSR1 (human)): 102% | residual activity (DYRK4 (human)): 92.7% | residual activity (NEK11 (human)): 110% | residual activity (HIPK1 (human)): 81.1% | residual activity (PKN2 (human)): 92.6% | residual activity (EPHB1 (human)): 107% | residual activity (NUAK2 (human)): 95.2% | residual activity (NEK3 (human)): 101% | residual activity (ADRBK1 (human)): 98.9% | residual activity (EPHA5 (human)): 100% | residual activity (CAMK1D (human)): 96.4% | residual activity (CSF1R (human)): 94.5% | residual activity (CDK4 CCND3 (human)): 103% | residual activity (FRK (human)): 90.1% | residual activity (MYLK (human)): 92.5% | residual activity (GRK5 (human)): 123% | residual activity (MAPK13 (human)): 101% | residual activity (RPS6KB1 (human)): 100% | residual activity (TEC (human)): 147% | residual activity (STK16 (human)): 105% | residual activity (MATK (human)): 94.3% | residual activity (EPHA3 (human)): 99.3% | residual activity (HCK (human)): 114% | residual activity (SLK (human)): 101% | residual activity (TGFBR2 (human)): 123% | residual activity (MELK (human)): 102% | residual activity (TBK1 (human)): 104%

Nc1ncnc2c1cnn2-c1ccccc1
residual activity (FYN (human)): 97.8% | residual activity (PRKCB1 (human)): 95.2% | residual activity (TNK2 (human)): 90.3% | residual activity (PIM3 (human)): 91.4% | residual activity (CAMK4 (human)): 104% | residual activity (LYN (human)): 102% and 99.7% | residual activity (CAMKK1 (human)): 84.8% | residual activity (IKBKB (human)): 97.3% | residual activity (TTK (human)): 90.6% | residual activity (HIPK2 (human)): 103% | residual activity (PDGFRB (human)): 94.7% | residual activity (AKT2 (human)): 102% | residual activity (MARK4 (human)): 89.7% | residual activity (OXSR1 (human)): 92.6% | residual activity (DYRK4 (human)): 98.4% | residual activity (NEK11 (human)): 107% | residual activity (HIPK1 (human)): 98.4% | residual activity (PKN2 (human)): 125% | residual activity (AURKA (human)): 91.9% | residual activity (EPHB1 (human)): 97.5% | residual activity (NUAK2 (human)): 75.2% | residual activity (NEK3 (human)): 93.5% | residual activity (ADRBK1 (human)): 99.4% | residual activity (EPHA5 (human)): 95.6% | residual activity (CAMK1D (human)): 95.6% | residual activity (CSF1R (human)): 105% | residual activity (CDK4 CCND3 (human)): 94% | residual activity (FRK (human)): 101% | residual activity (MYLK (human)): 99.7% | residual activity (GRK5 (human)): 104% | residual activity (PTK2 (human)): 94.9% | residual activity (RPS6KB1 (human)): 103% | residual activity (TEC (human)): 103% | residual activity (STK16 (human)): 94.3% | residual activity (MATK (human)): 89.9% | residual activity (EPHA3 (human)): 95% | residual activity (HCK (human)): 92.4% | residual activity (SLK (human)): 98% | residual activity (TGFBR2 (human)): 105% | residual activity (MELK (human)): 92.6%

COc1cc2c(N3CCN(C(=O)Nc4ccc(OC(C)C)cc4)CC3)ncnc2cc1OCCCN1CCCCC1
residual activity (FYN (human)): 94.8% | residual activity (PRKCB1 (human)): 98.4% | residual activity (TNK2 (human)): 92.7% | residual activity (PIM3 (human)): 100% | residual activity (CAMK4 (human)): 99.3% | residual activity (LYN (human)): 103% and 95.6% | residual activity (CAMKK1 (human)): 90.3% | residual activity (IKBKB (human)): 97.3% | residual activity (TTK (human)): 100% | residual activity (HIPK2 (human)): 91.8% | residual activity (AKT2 (human)): 97.9% | residual activity (MARK4 (human)): 98.7% | residual activity (OXSR1 (human)): 95.8% | residual activity (DYRK4 (human)): 101% | residual activity (NEK11 (human)): 92.5% | residual activity (HIPK1 (human)): 98.9% | residual activity (PKN2 (human)): 110% | residual activity (AURKA (human)): 108% | residual activity (EPHB1 (human)): 96.6% | residual activity (NUAK2 (human)): 100% | residual activity (NEK3 (human)): 103% | residual activity (ADRBK1 (human)): 98% | residual activity (EPHA5 (human)): 104% | residual activity (CAMK1D (human)): 110% | residual activity (CDK4 CCND3 (human)): 104% | residual activity (FRK (human)): 101% | residual activity (MYLK (human)): 96.6% | residual activity (GRK5 (human)): 106% | residual activity (PTK2 (human)): 101% | residual activity (MAPK13 (human)): 99.3% | residual activity (RPS6KB1 (human)): 107% | residual activity (TEC (human)): 89% | residual activity (STK16 (human)): 103% | residual activity (MATK (human)): 79.4% | residual activity (EPHA3 (human)): 94.7% | residual activity (HCK (human)): 93.2% | residual activity (SLK (human)): 94.6% | residual activity (TGFBR2 (human)): 102% | residual activity (MELK (human)): 87.9% | residual activity (TBK1 (human)): 97.2%
